# Assay results: article PMC12390684 (Viruses, 2025)
# Numbered stars: 1 amine (or outer) side, 2 acyl side, 3 side chain; on linkers, the order of the positions; unused ones are H or OH. Bridge positions count the residues as written; N and C are the ends. Square brackets hold non-standard residues; d marks the D form. Peptide text beside a SMILES is read from it. I, II: the chains in the order shown. Actinocin(9to1) = Cc1c2oc3c(C)ccc(C(=O)[*:1])c3nc-2c(C(=O)[*:2])c(N)c1=O; NMeV = CN[C@H](C(=O)O)C(C)C; Sar = CNCC(=O)O
# Biological target: IN-GCN2 interaction (6xHis-IN / GST-GCN2) (UniProt P04585+Q9P2K8)
# Experiment: biochemical
# Format: binding, HIV-1 IN; human GCN2
# Conditions: screen, single dose 100 µM, single replicate; residual AlphaLISA signal normalized to DMSO control
# IN-GCN2 interaction (6xHis-IN / GST-GCN2), sequence (Q9P2K8 192-1024, other chains not shown): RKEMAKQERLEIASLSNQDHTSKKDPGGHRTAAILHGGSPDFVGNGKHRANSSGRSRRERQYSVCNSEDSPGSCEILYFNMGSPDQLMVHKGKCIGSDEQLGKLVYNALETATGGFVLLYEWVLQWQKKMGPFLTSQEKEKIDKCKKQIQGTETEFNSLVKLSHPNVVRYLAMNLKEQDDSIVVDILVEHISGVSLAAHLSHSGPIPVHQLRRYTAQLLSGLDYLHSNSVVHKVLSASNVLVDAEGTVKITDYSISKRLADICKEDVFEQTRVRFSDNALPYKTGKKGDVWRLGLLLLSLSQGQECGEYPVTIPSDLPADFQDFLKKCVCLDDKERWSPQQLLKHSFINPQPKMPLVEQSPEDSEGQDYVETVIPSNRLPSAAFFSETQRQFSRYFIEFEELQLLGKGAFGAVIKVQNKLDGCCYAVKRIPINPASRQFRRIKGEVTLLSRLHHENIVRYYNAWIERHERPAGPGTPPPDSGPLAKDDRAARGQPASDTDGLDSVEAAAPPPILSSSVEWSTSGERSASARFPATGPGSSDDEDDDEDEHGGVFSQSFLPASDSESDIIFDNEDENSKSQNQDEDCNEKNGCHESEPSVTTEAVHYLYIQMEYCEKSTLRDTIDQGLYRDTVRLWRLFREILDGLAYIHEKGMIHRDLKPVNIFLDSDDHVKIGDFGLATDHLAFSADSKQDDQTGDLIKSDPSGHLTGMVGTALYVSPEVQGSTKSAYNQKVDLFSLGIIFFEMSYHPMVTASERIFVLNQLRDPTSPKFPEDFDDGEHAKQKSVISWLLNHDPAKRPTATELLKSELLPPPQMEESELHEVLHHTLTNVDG
row,SMILES,IN-GCN2 interaction (%)
1,COc1cc2c(c(OC)c1OC)-c1ccc(OC)c(=O)cc1[C@@H](NC(C)=O)CC2 [NSC757],116.47
2,CC1(C)[C@H](C(=O)O)CC[C@]1(C)C(=O)O [NSC824],90.14
3,OC[C@H]1O[C@@](CO)(O[C@H]2O[C@H](CO)[C@@H](O)[C@H](O)[C@H]2O)[C@@H](O[C@H]2O[C@H](CO)[C@@H](O)[C@H](O)[C@H]2O)[C@@H]1O [NSC2080],102.20
4,COc1cccc(C=O)c1O [NSC2150],88.39
5,O=C(O)CC(CC(=O)O)C(=O)O [NSC2347],84.06
6,CC1(C)C(CC(=O)O)CC1C(=O)O (centres unmarked) [NSC2802],86.94
7,CCCCCC[C@@H](O)C/C=C\CCCCCCCC(=O)[O-].[Na+] [NSC2835],143.81
8,CC(C)c1ccc2c(c1)CC[C@H]1[C@](C)(C(=O)O)CCC[C@]21C [NSC2952],107.26
9,"Cc1c2oc3c(C)ccc(C(=O)N[C@@H]4C(=O)N[C@H](C(C)C)C(=O)N5CCC[C@H]5C(=O)N(C)CC(=O)N(C)[C@@H](C(C)C)C(=O)O[C@@H]4C)c3nc-2c(C(=O)N[C@@H]2C(=O)N[C@H](C(C)C)C(=O)N3CCC[C@H]3C(=O)N(C)CC(=O)N(C)[C@@H](C(C)C)C(=O)O[C@@H]2C)c(N)c1=O [NSC3053] (I: T[dV]P[Sar][NMeV] / II: T[dV]P[Sar][NMeV]; ester I:1-I:C, II:1-II:C; linker I:N-II:N via Actinocin(9to1))",121.53
10,COC1=CC(=O)C(C)=CC1=O [NSC3071],99.07
11,Nc1nc2c(c(=O)[nH]1)N(C=O)C(CNc1ccc(C(=O)N[C@@H](CCC(=O)O)C(=O)O)cc1)CN2 (some centres unmarked) [NSC3590],94.67
12,CC(=O)CCC(=O)O [NSC3716],123.74
13,NC(Cc1cc(I)c(O)c(I)c1)C(=O)O (centres unmarked) [NSC4143],75.41
14,COc1cc([C@H]2c3cc(O)c(OC)cc3C[C@H]3C(=O)OC[C@H]23)ccc1O [NSC4586],86.55
15,CC(C)=CCc1c2c(c3occ(-c4ccc(O)c(O)c4)c(=O)c3c1O)C=CC(C)(C)O2 [NSC5113],36.50
16,CO[C@H]1[C@@H](O)[C@@H](C)O[C@H](O[C@H]2[C@H](Oc3cccc4c(O)c5c(=O)oc6ccc(C)c7c(=O)oc(c34)c5c67)O[C@H](C)[C@H](O)[C@@H]2O)[C@@H]1O [NSC5159],121.88
17,COc1ccc2c(c1OC)C(=O)O[C@@H]2[C@H]1c2c(cc3c(c2OC)OCO3)CCN1C [NSC5366],132.74
18,CCCCCCCCCCCCCCCCCCO [NSC5379],92.43
19,O=c1[nH]cnc2ccccc12 [NSC5863],93.27
20,COC(=O)/C(=C1/OC(=O)C(c2ccccc2)=C1O)c1ccccc1 [NSC5897],95.33
21,C=C[C@]1(C)C=C2CC[C@@H]3[C@](C)(CCC[C@@]3(C)C(=O)O)[C@H]2CC1 [NSC6435],127.66
22,CC1=CC(=O)[C@@H]2C[C@H]1C2(C)C [NSC6832],90.37

row,SMILES,IN-GCN2 interaction (%)
1,C[C@@H]1O[C@@H](O[C@@H]2C=C3CC[C@@H]4[C@H](CC[C@]5(C)[C@@H](c6ccc(=O)oc6)CC[C@]45O)[C@@]3(C)CC2)[C@H](O)[C@H](O)[C@H]1O [NSC7521],97.97
2,COc1ccc(C(=O)O[C@H]2CC[C@@]3(C)[C@@H]4CC[C@H]5[C@]6(O)C[C@H](O)[C@@]7(O)[C@@H](CN8C[C@@H](C)CC[C@H]8[C@@]7(C)O)[C@]6(O)C[C@@]53O[C@]24O)cc1OC [NSC7524],106.09
3,C[C@@H]1O[C@@H](O[C@@H]2C=C3CC[C@@H]4[C@H](CC[C@]5(C)[C@@H](c6ccc(=O)oc6)CC[C@]45O)[C@@]3(C)CC2)[C@H](O)[C@H](O)[C@H]1O[C@@H]1O[C@H](CO)[C@@H](O)[C@H](O)[C@H]1O [NSC7525],99.88
4,CC(=O)O[C@H]1C[C@H](O[C@H]2[C@@H](O)C[C@H](O[C@H]3[C@@H](O)C[C@H](O[C@H]4CC[C@@]5(C)[C@H](CC[C@@H]6[C@@H]5CC[C@]5(C)[C@@H](C7=CC(=O)OC7)CC[C@]65O)C4)O[C@@H]3C)O[C@@H]2C)O[C@H](C)[C@H]1O[C@@H]1O[C@H](CO)[C@@H](O)[C@H](O)[C@H]1O [NSC7532],117.74
5,CC(=O)O[C@H]1C[C@H](O[C@H]2[C@@H](O)C[C@H](O[C@H]3[C@@H](O)C[C@H](O[C@H]4CC[C@@]5(C)[C@H](CC[C@@H]6[C@@H]5C[C@@H](O)[C@]5(C)[C@@H](C7=CC(=O)OC7)CC[C@]65O)C4)O[C@@H]3C)O[C@@H]2C)O[C@H](C)[C@H]1O[C@@H]1O[C@H](CO)[C@@H](O)[C@H](O)[C@H]1O [NSC7533],107.72
6,CC(=O)O[C@H]1C[C@H](O[C@H]2[C@@H](O)C[C@H](O[C@H]3[C@@H](O)C[C@H](O[C@H]4CC[C@@]5(C)[C@H](CC[C@@H]6[C@@H]5CC[C@]5(C)[C@@H](C7=CC(=O)OC7)[C@@H](O)C[C@]65O)C4)O[C@@H]3C)O[C@@H]2C)O[C@H](C)[C@H]1O[C@@H]1O[C@H](CO)[C@@H](O)[C@H](O)[C@H]1O [NSC7535],83.30
7,NC(=O)NC1NC(=O)NC1=O (centres unmarked) [NSC7606],88.72
8,O=C(O)/C=C(/CC(=O)O)C(=O)O [NSC7616],85.71
9,Nc1ncnc2c1ncn2[C@@H]1O[C@H](CO)[C@@H](O)[C@H]1O [NSC7652],51.17
10,O=C(O)CCCCCCC[C@@H](O)[C@@H](O)CCCCCCO [NSC7668],129.82
11,COc1c2occc2c(OC)c2c(=O)cc(C)oc12 [NSC8519],129.74
12,Oc1ccc2c(c1)OC[C@]1(O)Cc3cc(O)c(O)cc3[C@H]21 [NSC8661],86.68
13,C/C=C/C(=O)O [NSC8751],85.97
14,C[C@H](CCC(=O)O)[C@H]1CC[C@H]2[C@@H]3CC[C@@H]4C[C@H](O)CC[C@]4(C)[C@H]3C[C@H](O)[C@]12C [NSC8797],85.28
15,CC(C)[C@H]1CC[C@@](C)(C(=O)O)C1 [NSC8973],89.12
16,O=C(O)C1OC(O)C(O)C(O)C1O (centres unmarked) [NSC9248],110.72
17,CO[C@@H]1[C@H](O)CC[C@]2(CO2)[C@H]1[C@@]1(C)O[C@@H]1CC=C(C)C [NSC9665],118.70
18,C[C@]12CC[C@@H]3c4ccc(O)cc4CC[C@H]3[C@@H]1CCC2=O [NSC9699],98.84
19,COc1cc2c(cc1OC)CN1CCc3cc(OC)c(OC)cc3C1C2 (centres unmarked) [NSC10105],96.86
20,CN1CCc2cc3c(cc2C(=O)Cc2ccc4c(c2C1)OCO4)OCO3.Cl [NSC11440],160.70
21,COc1ccc(/C=C/C(=O)c2ccccc2)cc1 [NSC11866],81.82
22,CC(C)=CCC1=C(O)c2ccccc2C(=O)C1=O [NSC11905],107.31

row,SMILES,IN-GCN2 interaction (%)
1,COc1cccc2c1cc([N+](=O)[O-])c1c(C(=O)O)cc3c(c12)OCO3 [NSC11926],137.25
2,O=c1ccc2nc3ccc(O)cc3oc-2c1 [NSC12097],169.88
3,O=C(O)C1C2CC3OC(=O)C1C3C2 (centres unmarked) [NSC12444],94.03
4,Br.C=CC1CN2CCC1CC2C(O)c1ccnc2ccc(OC)cc12 (centres unmarked) [NSC12865],97.92
5,CN1CC(=O)NC1=N [NSC13123],106.95
6,CN(C)[C@@H]1C(O)=C(C(N)=O)C(=O)[C@@]2(O)C(O)=C3C(=O)c4c(O)ccc(Cl)c4[C@@](C)(O)[C@H]3C[C@@H]12 [NSC13252],93.93
7,COc1cc(O)c(C(C)=O)c2c1C=CC(C)(C)O2 [NSC14135],87.24
8,O=c1[nH]c(=O)c2[nH]cnc2[nH]1 [NSC14664],105.35
9,O=c1[nH]cnc2nc[nH]c12 [NSC14665],108.10
10,CC1=CC(O)C(O)C2(C)C1CC1OC(=O)C(O)C3C(C)C(O)C4(O)OCC13C42 (centres unmarked) [NSC14974],90.88
11,CC[C@](C)(O)C(=O)O[C@H]1C(=O)O[C@@H]2C[C@H]3C(C)=C[C@H](O)[C@@H](O)[C@]3(C)[C@H]3[C@]4(O)OC[C@]32[C@@H]1[C@@H](C)[C@H]4O [NSC14975],117.58
12,C=C[C@H]1CN2CC[C@H]1C[C@H]2C(=O)c1ccnc2ccc(OC)cc12 [NSC15307],84.16
13,COC(=O)C1=CO[C@@H](C)[C@@H]2CN3CCc4c([nH]c5cc(OC)ccc45)[C@@H]3C[C@H]12 [NSC15624],43.70
14,N#C[C@H](O[C@@H]1O[C@H](CO[C@@H]2O[C@H](CO)[C@@H](O)[C@H](O)[C@H]2O)[C@@H](O)[C@H](O)[C@H]1O)c1ccccc1 [NSC15780],121.81
15,O=C(O)c1ccc(O)c(O)c1 [NSC16631],69.74
16,O=c1cc(-c2ccccc2)oc2ccccc12 [NSC19028],58.68
17,COc1ccc(/C=C/C(=O)c2c(OC)cc(OC)c(OC)c2O)cc1 [NSC19038],50.51
18,COC(=O)[C@@H]1[C@H]2C[C@H]3c4[nH]c5ccccc5c4CCN3C[C@@H]2CC[C@@H]1O [NSC19509],68.27
19,COC(=O)[C@@H]1[C@H](O)[C@H](C)[C@H](O)[C@H](C)/C=C\C=C(/C)C(=O)Nc2c(C)c(OC(C)=O)c3c(c2O)C(=O)C(C)=C2OCOC(=C23)/C(C)=C/[C@@](C)(O)[C@H](O)[C@@H](C)[C@H]1O [NSC19990],69.46
20,O=C(O)c1cc(O)c(O)c(O)c1 [NSC20103],83.04
21,Nc1ncnc2c1ncn2[C@@H]1O[C@H](COP(=O)(O)O)[C@@H](O)[C@H]1O [NSC20264],82.61
22,O=c1cccc2n1C[C@H]1C[C@@H]2CN2CCCC[C@@H]12 [NSC21725],90.50

# Same assay, conditions: screen, single dose 100 µM, single replicate; residual AlphaLISA signal normalized to DMSO control; listed as 1115
row,SMILES,IN-GCN2 interaction (%)
1,O=C(O)C1(O)C[C@@H](O)C(O)[C@H](O)C1 (some centres unmarked) [NSC1115],83.40

# Same assay, conditions: screen, single dose 100 µM, single replicate; residual AlphaLISA signal normalized to DMSO control; listed as 18805
row,SMILES,IN-GCN2 interaction (%)
1,CC(C)c1ccc(O)c(=O)cc1 [NSC18805],75.92
